Measurements reported in patent US20250388597A1, “BIFUNCTIONAL PHOTOCROSSLINKING PROBES FOR COVALENT CAPTURE OF PROTEIN-NUCLEIC ACID COMPLEXES IN CELLS” (UNIVERSITY OF SOUTHERN CALIFORNIA, priority 2022, published 2025).

Target: T1, FOXP3 covalently linked to genomic DNA in HEK293T cells (Homo sapiens, UniProt Q9BZS1)
T1 construct: AVI tag (N); TEV site (N); expressed in transfected cells; host or cells: HEK293T
T1 sequence (Q9BZS1 1-431): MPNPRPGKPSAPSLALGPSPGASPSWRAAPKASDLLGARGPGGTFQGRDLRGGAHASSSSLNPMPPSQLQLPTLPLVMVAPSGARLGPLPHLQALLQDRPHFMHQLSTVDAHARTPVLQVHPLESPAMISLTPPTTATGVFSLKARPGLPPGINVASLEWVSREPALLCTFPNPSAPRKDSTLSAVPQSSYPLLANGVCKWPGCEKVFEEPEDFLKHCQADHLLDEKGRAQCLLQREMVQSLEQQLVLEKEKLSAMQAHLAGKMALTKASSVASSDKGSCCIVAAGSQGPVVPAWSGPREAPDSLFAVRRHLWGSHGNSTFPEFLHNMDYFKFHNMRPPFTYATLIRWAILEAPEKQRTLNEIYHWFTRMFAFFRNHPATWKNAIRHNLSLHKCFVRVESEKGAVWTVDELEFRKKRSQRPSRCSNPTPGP
Test: TRIzol extraction of genomic DNA from BFPX-treated HEK293T cells, Benzonase digestion, anti-FLAG western blot
Type: cell-based
Conditions: probe 100 μM + UV (lanes 4 and 5) vs controls (lane 1-3)
Method: FIG. 14D depicts for the same BFPX-treated HEK293T cells transfected with AVI-TEV-FLAG-FOXP3 described in (FIG. 14C), TRIzol was used to extract genomic DNA. Briefly, for each aliquot of 0.25 million of cells, lyse and homogenize the sample in 200 μl TRIzol™ Reagent. Incubate for 5 minutes to permit complete dissociation of the nucleoproteins complex. 40 μl of chloroform was then added to the sample to incubate for 3 min. The sample was then centrifuged for 15 minutes at 12,000×g at 4° C. to separate into a lower red phenol/chloroform-interphase layer and a colorless upper aqueous phase. The upper aqueous phase was removed by pipetting. […] Run at 200V for 40 minutes on 4%-15% SDS-PAGE gel and analyzed by western blot (Transfer at 20V (40 mA) overnight, block in 2% BSA in PBS for 45 min, Primary antibody: 1:2000 anti-FLAG; room temperature, 2 hr; Secondary antibody: anti mouse light chain kappa 1:100,000; SuperSignal™ Western Blot Substrate Bundle, Femto).
TRIzol uses strong denaturing reagent (e.g. 4 M guanidine thiocyanate) to lyse the cells and completely dissociate nucleoprotein complexes. The extracted genomic DNA was then digested extensively with Benzonase and analyzed by SDS PAGE gel and western blot. […]

FOXP3 co-extracted with genomic DNA under strong denaturing conditions: showed FOXP3 proteins
Structure (SMILES): C#CCCC1(CCNC(=O)CCCOc2c3occc3cc3ccc(=O)oc23)N=N1 [SPB-AAD, N-(2-(3-(but-3-yn-1-yl)-3H-diazirin-3-yl)ethyl)-4-((7-oxo-7H-furo[3,2-g]chromen-9-yl)oxy)butanamide]
